Patent publication US9011910B2, “Implantable tizanidine compositions and methods of treatment thereof” (Endo Pharmaceuticals Solutions Inc., priority 2011, dated 2015)
Structures can show the parent of a compound that is named as a salt. Where two headings read alike, the source gives them in different places.

Legend:
[1] = 2% stearic acid; for in vitro elution rate: nine pellets, 100 mL PBS at 37° C.; for release rate: about 250 mg API, up to 36 weeks
From the text: In one embodiment of the present invention, tizanidine is delivered to the subject at a target range of about 100 micrograms/day to about 10,000 micrograms/day. For example, tizanidine is delivered to the subject at a target range of about 100 to about 5,000 micrograms/day, or about 200 to about 4,000 micrograms per day, or about 300 to about 3,000 micrograms per day or about 400 to about 2,000 micrograms per day. The testing method set forth in the examples to determine the elution rates for compositions comprising tizanidine includes placing the implants in an elution bath consisting of PBS or 0.9% saline at 37° C. Weekly exchanges of the elution media are then analyzed by HPLC for the durations given.
The implants were sterilized by gamma irradiation and placed in an elution bath consisting of 100 mL PBS at 37° C.
A discrete solid dosage form was prepared as follows. The drug implants were manufactured using PEBAX® 2533 and PEBAX® 3533, as the tubing material and tizanidine free base as the API. […] A total of about 250 mg tizanidine free base were loaded into the implant with 10% croscarmellose and 2% stearic acid. The implant were sterilized by gamma irradiation and placed in an elution batch consisting of 200 mL 0.9% saline at 37° C.
A discrete solid dosage form was prepared as follows. Various polyurethanes were used as the tubing material (i.e., TECOFLEX® EG-80A, TECOFLEX® EG-85A, TECOFLEX® EG-93A, TECOPHILIC® HP-60D-05, and TECOPHILIC® HP-60D-10 polyurethanes) and tizanidine hydrochloride as the API. […] A total of about 380 mg tizanidine hydrochloride were loaded into the implant with 10% croscarmellose and 2% stearic acid. The implants were sterilized by gamma irradiation and placed in an elution batch consisting of 200 mL PBS at 37° C. Weekly exchanges of the elution media were analyzed by HPLC over 5 weeks.
The drug implants were manufactured as described in Example 3, except tizanidine free base was used as the API instead of tizanidine HCl. […] A total of about 250 mg tizanidine free base were loaded into the implants with 10% croscarmellose and 2% stearic acid. The implants were sterilized by gamma irradiation and placed in an elution batch consisting of 200 mL PBS at 37° C. Weekly exchanges of the elution media were analyzed by HPLC for up to 36 weeks.

[2] = oral dosage form, approximate; cited from earlier work

SMILES | in vitro elution rate ([1]; TECOFLEX EG-80A implant, 5% croscarmellose, 405 mg API, week 2) | in vitro elution rate ([1]; TECOFLEX EG-80A implant, 5% croscarmellose, 405 mg API, week 27) | in vitro elution rate ([1]; TECOFLEX EG-80A implant, 15% croscarmellose, 360 mg API, week 2) | in vitro elution rate ([1]; TECOFLEX EG-80A implant, 15% croscarmellose, 360 mg API, week 27) | release rate ([1]; TECOFLEX EG-80A implant, 10% croscarmellose, 200 mL PBS at 37° C.) | release rate ([1]; TECOFLEX EG-93A implant, 10% croscarmellose, 200 mL PBS at 37° C.) | oral bioavailability [2] | drug release from the implants (elution rate in vitro) ([1]; all polyurethanes investigated (TECOFLEX EG-80A, EG-85A, EG-93A, TECOPHILIC HP-60D-05, HP-60D-10), about 380 mg API, 10% croscarmellose, 200 mL PBS at 37° C., 5 weeks)
Clc1ccc2nsnc2c1NC1=NCCN1 [tizanidine free base, 5-chloro-N-(4,5-dihydro-1H-imidazol-2-yl)benzo[c][1,2,5]thiadiazol-4-amine] | about 1,200 μg/day | about 900 μg/day | about 1,400 μg/day | about 1,250 μg/day | about 900 μg per day | about 100 μg per day |  | 
Clc1ccc2nsnc2c1NC1=NCCN1 [tizanidine HCl, tizanidine hydrochloride] |  |  |  |  |  |  | 20-40% | below 100 μg per day
